In the supplement of paper PMC10307832:

Columns and labels:
Assay in all cases: relative viability (nuclei count vs DMSO), 5 days (fraction); higher = more cells survive
RU-SKI 43 + Lapatinib = compound: CC[C@@H](C)CNCC(=O)N1CCC2=C([C@@H]1COC3=CC=CC(=C3)C)C=CS2 [RU-SKI 43] + CS(=O)(=O)CCNCc1ccc(-c2ccc3ncnc(Nc4ccc(OCc5cccc(F)c5)c(Cl)c4)c3c2)o1 [Lapatinib] (partner 2 µM)
Outline: (§1)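 A single step with final 0.05% Triton X-100, 1% formaldehyde and 1 ug/ml Hoechst fixed the cells and stained nuclei 5 days after treatment. Lung cancer cell lines in 1536-well plates had been treated by pin tool the day after seeding with one drug alone or a fixed anchor-drug dose plus five library-drug doses (not always all listed) in √10 steps, and nuclei were counted on 4× images. Relative viability is the ratio of nuclei in treated wells to nuclei in vehicle wells, taken as the median of duplicate plates.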

RU-SKI 43 + Pictilisib = compound: CC[C@@H](C)CNCC(=O)N1CCC2=C([C@@H]1COC3=CC=CC(=C3)C)C=CS2 [RU-SKI 43] + CS(=O)(=O)N1CCN(Cc2cc3nc(-c4cccc5[nH]ncc45)nc(N4CCOCC4)c3s2)CC1 [Pictilisib] (partner 1 µM)
Outline: as §1

MK-8033 + Pictilisib = compound: Cn1cc(-c2cnc3ccc4ccc(CS(=O)(=O)NCc5ccccn5)cc4c(=O)c3c2)cn1 [MK-8033] + CS(=O)(=O)N1CCN(Cc2cc3nc(-c4cccc5[nH]ncc45)nc(N4CCOCC4)c3s2)CC1 [Pictilisib] (partner 1 µM)
Outline: as §1

MK-8033 + Decitabine = compound: Cn1cc(-c2cnc3ccc4ccc(CS(=O)(=O)NCc5ccccn5)cc4c(=O)c3c2)cn1 [MK-8033] + Nc1ncn([C@H]2C[C@H](O)[C@@H](CO)O2)c(=O)n1 [Decitabine] (partner 2 µM)
Outline: as §1

Cell Line	relative viability (RU-SKI 43 + Lapatinib; first compound 0.1 µM)	relative viability (RU-SKI 43 + Lapatinib; first compound 0.3162 µM)	relative viability (RU-SKI 43 + Lapatinib; first compound 1 µM)	relative viability (RU-SKI 43 + Lapatinib; first compound 3.162 µM)	relative viability (RU-SKI 43 + Lapatinib; first compound 10 µM)	relative viability (RU-SKI 43 + Pictilisib; first compound 0.1 µM)	relative viability (RU-SKI 43 + Pictilisib; first compound 0.3162 µM)	relative viability (RU-SKI 43 + Pictilisib; first compound 1 µM)	relative viability (RU-SKI 43 + Pictilisib; first compound 10 µM)	relative viability (MK-8033 + Pictilisib; first compound 0.02 µM)	relative viability (MK-8033 + Pictilisib; first compound 0.06325 µM)	relative viability (MK-8033 + Pictilisib; first compound 0.2 µM)	relative viability (MK-8033 + Pictilisib; first compound 0.6325 µM)	relative viability (MK-8033 + Pictilisib; first compound 2 µM)	relative viability (MK-8033 + Decitabine; first compound 0.02 µM)	relative viability (MK-8033 + Decitabine; first compound 0.06325 µM)	relative viability (MK-8033 + Decitabine; first compound 0.2 µM)	relative viability (MK-8033 + Decitabine; first compound 0.6325 µM)	relative viability (MK-8033 + Decitabine; first compound 2 µM)	relative viability (RU-SKI 43 + Pictilisib; first compound 3.162 µM)
LK-2	1.38	1.09	1.19	1.03	1.03	0.596	0.809	0.686	0.532	0.629	0.452	0.535	0.621	0.606	0.299	0.3	0.322	0.339	0.343	
LOU-NH91	0.796	0.685	0.815	0.749	0.754	0.504	0.483	0.547	0.543	0.531		0.498	0.548	0.506	0.792	0.662	0.789	0.789	0.813	0.485
LU99A	0.839	1.14	0.968	0.956	0.925	0.312	0.304	0.321	0.292	0.331	0.275	0.318	0.29	0.32	0.853	0.901	0.849	0.951	0.883	0.333
NCI-H441						0.466	0.491	0.47	0.468	0.45	0.446	0.416	0.446	0.444	0.237	0.237	0.231	0.264	0.238	0.609
NCI-H522															0.552	0.617	0.73	0.612	0.725	
NCI-H1299	0.965	1.03	1.05	0.941	0.95	0.823	1.05	0.709	0.686	0.759	0.862	0.748	0.799	0.617						0.789
NCI-H1563	0.871	0.874	0.879	0.913	0.765	0.682	0.653	0.689	0.646	0.617	0.63	0.648	0.659	0.705						0.701
NCI-H1648															0.402		0.543	0.515	0.468	
NCI-H1703		1.86	1.11	1.16	0.637	0.253	0.209	0.263	0.219	0.238	0.244	0.255	0.223	0.248						0.273
NCI-H2228	1.05	1.3	1.45	1.29	0.891	0.306	0.375	0.42	0.285	0.397	0.599	0.356	0.336	0.357						0.51
NCI-H2342															0.729	0.787	0.738	0.705	0.782	
SW 900															0.483	0.328	0.496	0.549	0.41	
